In brackets after ≈: the same amount, converted by molar mass.
What was measured:
[1] = system: S. aureus Col (Meth^R) (lac^-); assay: MIC by agar dilution, S. aureus Col (Meth^R) (lac^-); assay type: cell-based; conditions: Staphylococcus aureus; agar dilution; S. aureus Col (Meth^R) (lac^-); read-out: MIC
Description: The compounds of the invention were evaluated against several β-lactamresistant bacteria strains by determining the minimum inhibitory concentration (MIC, μg/ml) of each compound with respect to each strain. The MIC, the lowest concentration of antibiotic which inhibits growth of the test organism, was determined by the agar dilution method.
To determine the MIC for bacterial isolates, the test compound was incorporated in a series of two-fold dilutions into liquified Mueller-Hinton agar. Upon solidification, a number of different bacterial strains were spot inoculated with a replicating device onto the agar surface. […] The procedures used in these studies have been standardized by the National Committee for Clinical Laboratory Standards (NCCLS), as per the NCCLS publication entitled METHODS FOR DILUTION ANTIMICROBIAL SUSCEPTIBILITY TESTS (1991), which is incorporated herein by reference.
Aliquots of antimicrobial agents were prepared in phosphate buffered saline (PBS) at pH 7.2. Tween 20 or DMSO was used as a solubilizing vehicle as needed. Standard methods of vortexing, sonicating and gentle heat were used to facilitate solubilizing the test agent. Typically, the concentration of the stock solution was 10× that of the highest drug concentration tested. A 1.28 mg/mL stock solution was used with a subsequent highest working concentration of 128 μg/mL. Serial two-fold dilutions were done through ≤0.25 μg/mL. Each drug level was tested in duplicate. Two-fold drug dilutions were done in sterile 50 mL tubes with a final drug volume of 5 mL. Upon the addition of 45 mL of molten agar, a 10-fold dilution resulted. Two, 25 mL. plates were then poured into 15×150 mm square Petri plates with grids and allowed to harden.
A control plate with a reference drug, either cefotaxime, vancomycin or imipenem, was used as the positive growth control. Stock concentrations of reference antibiotics were prepared and frozen at -80° C. Upon preparation, the control plates were sealed and stored in the refrigerator for up to 1 week prior to use; however, imipenem control plates had to be prepared just prior to use. All test plates were used within 24 hours of preparation.
Satisfactory results were obtained where the inoculum contained about 10^4 colony forming units (cfu) ±0.5 logs. Starting with pure cultures of the test isolates on agar plates, a few isolated colonies were transferred to a tube of nutrient broth and allowed to grow 4-6 hours at 35°-36° C. to reach log-phase growth. Dropwise addition of the broth culture to PBS was done to match a 0.5 McFarland turbidity standard equal to 10^8 cfu/mL. This was further diluted ten-fold in PBS to reach a working inoculum concentration of 10^7 cfu/mL. When 1 μL of the working inoculum was applied to the agar surface a concentration of about 10^4 cfu per spot was obtained.
Disposable sterile 1 μL loops were used to inoculate test plates, with each isolate in a designated grid on the agar plate. An alternate method of inoculation involved the use of a replica plater, a device with 48 steel pins allowing the simultaneous inoculation of multiple isolates. After the spots had dried, the plates were incubated at 35°-36° C. for 16-20 hours. Endpoints were assessed as the minimum inhibitory concentration (MIC) of antimicrobial agent.
The novel agents of this invention are notable for their enhanced activity against S. aureus Col and Enterococci (E. faecium and E. faecalis). The S. aureus Col strain is a high-level PBP2a producer, whereas S. aureus Col 8A, its isogenic partner, lacks PBP2a. […] Thus, the compounds of the present invention are effective against PBP2a-producing bacteria.

[2] = system: methicillin-susceptible S. aureus strain ATCC 13709; assay: murine model for lethal bacteremic peritonitis; assay type: in vivo, female Swiss-Webster mice; conditions: subcutaneous, 72 h
Description: Groups of 5 female Swiss-Webster mice (Simonsen, Gilroy, Calif.) each are challenged by the intraperitoneal (IP) route with tenfold increments of a bacterial inoculum. This permits calculation of the mean lethal dose (LD50) and the LD100. For preliminary evaluation of a new antibiotic, mice are challenged IP with an LD100 titer of bacteria. In two equal doses administered at the time of bacterial challenge and 2 hours later, groups of 10 mice each are treated subcutaneously with two-fold increments of the test drug and an antibiotic of known efficacy in mice and humans (i.e., positive control). Mice are observed for 72 h. Those alive at 72 h are considered long term survivors. The total drug dose in mg/kg that protects 50% of mice in a group from death is termed the mean protective dose (PD50). PD50 s are similarly determined for several pathogens. The quantitative endpoints for the new drug are then compared with those obtained with reference antibiotics.
Six ten-fold dilutions of inoculum suspended in 0.5 mL of sterilized 7% hog gastric mucin (Sigma) are injected IP in groups of 5 mice each. A control group of 5 mice receive mucin alone. Mice are observed for 72 h. Those alive at 72 h are considered long term survivors. The mean lethal dose (LD50) and 100% lethal dose (LD100) are determined by the probit test.
For antibiotic efficacy studies, mice are challenged IP with bacterial titers that will afford an LD100 for the test strain. In two equal doses administered at the time of bacterial challenge and 2 hours later, groups of 10 mice each are treated by the subcutaneous route (SC) with twofold increments of the test antibiotic; another group is treated similarly with a reference antibiotic of known efficacy in animals and man. Drug doses can range from 0.01 to 512 mg/kg. If the drug is poorly soluble, Tween 20 or propylene glycol will be employed to solubilize the drug. Animals are observed for 72 h. The 50% protective dose (PD50) is calculated in mg/kg by the probit method. The PD50 is the same as the 50% effective dose (ED50) and the 50% curative dose (CD50). Samples of blood from the hearts of all animals that die and from half the mice that survive are cultured on brain-heart infusion agar. Animals that received a protective dosage of the test drug will be alive at 72 h, although they may appear moderately ill to very ill during the observation period. […] Most of these mice will die within 6 to 48 h. Those alive at 72 h will be considered long term survivors.
(Compound numbers correspond to those in MIC tables; data
reported for challenge with methicillin-susceptible S. aureus

Row | Compound | MIC [1] [µg/mL] | other results
1 | O=C(Cc1ccccc1)N[C@@H]1C(=O)N2C(C(=O)O)=C(Sc3ccc(F)cc3)CS[C@H]12 [Cmpd 1, (7R)-7-[(Phenylacetyl)amino]-3-(p-fluorophenylthio)-3-cephem-4-carboxylic acid] | 16 (≈ 36 µM) | –
2 | O=C(Cc1ccccc1)N[C@@H]1C(=O)N2C(C(=O)O)=C(Sc3cccc(I)c3)CS[C@H]12 [Cmpd 2, (7R)-7-[(Phenylacetyl)amino]-3-(m-iodophenylthio)-3-cephem-4-carboxylic acid] | 2 (≈ 3.62 µM) | –
3 | O=C(Cc1ccccc1)N[C@@H]1C(=O)N2C(C(=O)O)=C(Sc3ccc(Cl)cc3)CS[C@H]12 [Cmpd 3, (7R)-7-[(Phenylacetyl)amino]-3-(p-chlorophenylthio)-3-cephem-4-carboxylic acid] | 2 (≈ 4.34 µM) | –
4 | O=C(Cc1ccccc1)N[C@@H]1C(=O)N2C(C(=O)O)=C(Sc3ccccc3Br)CS[C@H]12 [Cmpd 4, (7R)-7-[(Phenylacetyl)amino]-3-(o-bromophenylthio)-3-cephem-4-carboxylic acid] | 1 to 2 (≈ 1.98 to 3.96 µM) | –
5 | O=C(Cc1ccccc1)N[C@@H]1C(=O)N2C(C(=O)O)=C(Sc3ccc(Br)cc3)CS[C@H]12 [Cmpd 5, (7R)-7-[(Phenylacetyl)amino]-3-(p-bromophenylthio)-3-cephem-4-carboxylic acid] | 2 (≈ 3.96 µM) | –
6 | O=C(Cc1ccccc1)N[C@@H]1C(=O)N2C(C(=O)O)=C(Sc3ccc4c(c3)oc3ccccc34)CS[C@H]12 [Cmpd 7, (7R)-7-[(Phenylacetyl)amino]-3-(dibenzofuranyl-3-thio)-3-cephem-4-carboxylic acid] | 4 (≈ 7.74 µM) | –
7 | O=C(Cc1ccccc1)N[C@@H]1C(=O)N2C(C(=O)O)=C(Sc3ccc(-c4ccccc4)cc3)CS[C@H]12 [Cmpd 8, (7R)-7-[(Phenylacetyl)amino]-3-(4-biphenylthio)-3-cephem-4-carboxylic acid] | 4 (≈ 7.96 µM) | –
8 | O=C(Cc1ccccc1)N[C@@H]1C(=O)N2C(C(=O)O)=C(Sc3cccc(-c4ccccc4)c3)CS[C@H]12 [Cmpd 10, (7R)-7-[(Phenylacetyl)amino]-3-(3-biphenylthio)-3-cephem-4-carboxylic acid] | 8 (≈ 15.9 µM) | –
9 | O=C(Cc1ccccc1)N[C@@H]1C(=O)N2C(C(=O)O)=C(Sc3ccc(-c4ccccc4)cc3Br)CS[C@H]12 [Cmpd 11, (7R)-7-[(Phenylacetyl)amino]-3-(2-bromo-4-biphenylthio)-3-cephem-4-carboxylic acid] | 1 (≈ 1.72 µM) | –
10 | O=C(Cc1ccccc1)N[C@@H]1C(=O)N2C(C(=O)O)=C(Sc3ccc(-c4ccccc4)cc3F)CS[C@H]12 [Cmpd 13, (7R)-7-[(Phenylacetyl)amino]-3-(2-fluoro-4-biphenylthio)-3-cephem-4-carboxylic acid] | 4 (≈ 7.68 µM) | –
11 | O=C(Cc1ccccc1)N[C@@H]1C(=O)N2C(C(=O)O)=C(Sc3cc(Cl)ccc3Cl)CS[C@H]12 [Cmpd 16, (7R)-7-[(Phenylacetyl)amino]-3-(2,5-dichlorophenylthio)-3-cephem-4-carboxylic acid] | < 0.5 | –
12 | O=C(Cc1ccccc1)N[C@@H]1C(=O)N2C(C(=O)O)=C(Sc3ccc(Cl)c(Cl)c3)CS[C@H]12 [Cmpd 18, (7R)-7-[(Phenylacetyl)amino]-3-(3,4-dichlorophenylthio)-3-cephem-4-carboxylic acid] | 4 (≈ 8.07 µM) | –
13 | COC(=O)c1ccccc1SC1=C(C(=O)O)N2C(=O)[C@@H](NC(=O)Cc3ccccc3)[C@H]2SC1 [Cmpd 19, (7R)-7-[(Phenylacetyl)amino]-3-(o-carbomethoxyphenylthio)-3-cephem-4-carboxylic acid] | 4 (≈ 8.25 µM) | –
14 | O=C(Cc1cccs1)N[C@@H]1C(=O)N2C(C(=O)O)=C(Sc3ccccc3Br)CS[C@H]12 [Cmpd 20, (7R)-7-[(2-Thienylacetyl)amino]-3-(o-bromophenylthio)-3-cephem-4-carboxylic acid] | 0.5 (≈ 0.978 µM) | –
15 | O=C(Cc1ccccc1)N[C@@H]1C(=O)N2C(C(=O)O)=C(Sc3cccc4oc5ccccc5c34)CS[C@H]12 [Cmpd 21, (7R)-7-[(Phenylacetyl)amino]-3-(dibenzofuranyl-1-thio)-3-cephem-4-carboxylic acid] | 1 (≈ 1.94 µM) | –
16 | Nc1nc(/C(=N/O)C(=O)N[C@@H]2C(=O)N3C(C(=O)O)=C(Sc4ccccc4I)CS[C@H]23)cs1 [Cmpd 22, (7R)-7-[(Z)-2-(aminothiazol-4-yl)-2-(hydroxyimino)acetamido]-3-(o-iodophenylthio)-3-cephem-4-carboxylic acid] | 2 (≈ 3.31 µM) | –
17 | N#Cc1ccc(-c2ccccc2SC2=C(C(=O)O)N3C(=O)[C@@H](NC(=O)Cc4ccccc4)[C@H]3SC2)cc1 [Cmpd 23, (7R)-7-[(Phenylacetyl)amino]-3-(2-(4-cyanophenyl)phenylthio)-3-cephem-4-carboxylic acid] | 2 (≈ 3.79 µM) | –
18 | O=C(Cc1ccccc1)N[C@@H]1C(=O)N2C(C(=O)O)=C(Sc3cccc(Cl)c3Cl)CS[C@H]12 [Cmpd 24, (7R)-7-[(Phenylacetyl)amino]-3-(2,3-dichlorophenylthio)-3-cephem-4-carboxylic acid] | 1 (≈ 2.02 µM) | –
19 | O=C(Cc1cccs1)N[C@@H]1C(=O)N2C(C(=O)O)=C(Sc3ccccc3I)CS[C@H]12 [Cmpd 25, (7R)-7-[(2-Thienylacetyl)amino]-3-(o-iodophenylthio)-3-cephem-4-carboxylicacid] | 1 (≈ 1.79 µM) | –
20 | CN[C@H](CC(C)C)C(=O)N[C@H]1C(=O)N[C@@H](CC(N)=O)C(=O)N[C@H]2C(=O)N[C@H]3C(=O)N[C@H](C(=O)N[C@H](C(=O)O)c4cc(O)cc(O)c4-c4cc3ccc4O)[C@H](O)c3ccc(c(Cl)c3)Oc3cc2cc(c3O[C@@H]2O[C@H](CO)[C@@H](O)[C@H](O)[C@H]2O[C@H]2C[C@](C)(N)[C@H](O)[C@H](C)O2)Oc2ccc(cc2Cl)[C@H]1O [Vancomycin, reference compound] | – | Mortality ([2]; dose 0.625 mg/kg): 8/10; Mortality ([2]; dose 1.25 mg/kg): 6/10; Mortality ([2]; dose 2 mg/kg): 8/10; Mortality ([2]; dose 2.5 mg/kg): 5/10; Mortality ([2]; dose 4 mg/kg): 2/10; Mortality ([2]; dose 5 mg/kg): 5/10; Mortality ([2]; dose 8 mg/kg): 0/10; Mortality ([2]; dose 10 mg/kg): 2/10; Mortality ([2]; dose 16 mg/kg): 0/10; ED50 ([2]; two equal doses, S. aureus ATCC 13709 IP challenge, 4320 min): 2.79 mg/kg

Source: patent publication US5698547A, “Cephalosporin antibiotics” (Microcide Pharmaceuticals, Inc., priority 1995, dated 1997)
